Assay results from patent US5633277A, “Sulfonamide aminomethylene derivatives as immunosuppressants” (Miles Inc., priority 1995, dated 1997).
pIC50: −log10 of the molar value. Several values for one entry are separate records, joined by “and”; a condition that tells them apart may be missing. Identical values can stand only once.

Columns and labels:
FKBP = FKBP (Homo sapiens, UniProt P62942); test: PPIase Inhibition Assay; format: biochemical
Method: 1) Inhibition of PPlase Activity
This assay follows in principle the procedure described in Kofron et al., 1991, Biochemistry 30:6127. The three main reagents used are PPIase, a substrate for PPIase, and a selected inhibitor compound of the present invention. The basic principle behind this assay is the conversion of the cis isomer of the substrate to the trans form, which conversion is catalyzed by PPIase. Essentially, inhibition of this PPIase activity is measured for the selected compounds. A peptide chymotrypsin substrate containing a proline in the P2 position is only cleaved by chymotrypsin when the Phe-Pro bond is in the trans isomeric configuration. In the presence of excess chymotrypsin, all of the trans peptide isomers are cleaved within approximately five seconds, leaving only cis forms.
The cis peptide will spontaneously convert to the trans isomer at a slow rate. The cis to trans conversion is catalyzed by isomerases at a much faster rate than this spontaneous conversion. Proteins with PPIase activity are examples of such isomerases. After isomerization, the peptide is cleaved by chymotrypsin releasing p-nitroaniline which can be monitored at 390 nm. The rate of release is then calculated using a first order rate plus offset equation utilizing the ENZFITTER program (Leatherbarrow, BIOSOFT, Cambridge, United Kingdom).
In a plastic cuvette are added 950 ul of ice cold assay buffer (25 mM HEPES, pH 7.8, 100 mM NaCl), 10 uL of FKBP (2.5 uM in 10 mM Tris-Cl pH 7.5,100 mM NACl, 1 mM dithiothreitol), 25 ul of chymotrypsin (50 mg/ml in 1 mM HCl) and 10 ul of the test compound at various concentrations in dimethyl sulphoxide. The reaction is initiated by addition of 5 ul of substrate (Succinyl-Ala-Phe-Pro-Phe-para-nitroanilide, 5 mg/ml in 235 mM LiCl in trifluoroethanol).
The absorbance at 390 nm versus time is monitored for 90 sec using a Beckman DU70 spectrophotometer. The absorbance versus time data files are transferred to an IBM XT computer and the rate constants determined using the commercial Enzfitter program. For each set of data, the uncatalyzed rate of conversion is measured and the uninhibited enzymatic rate determined. The data are expressed as % Inhibition and are calculated as follows: [formula] where kobs is the rate in the presence of a selected test compound, kuncat is the rate in the absence of enzyme, and kuninh is the rate in the presence of enzyme and absence of inhibitor. Data are plotted as percent inhibition versus concentration of inhibitor. The values of the concentration of inhibitor required for 50% inhibition of enzyme activity (IC50) were determined by nonlinear least squares regression analysis.

NF-AT = NF-AT Inhibition Assay (NF-AT directed β-galactosidase expression in stimulated FGL-5 cells); format: cell-based; settings: phorbol ester and ionomycin stimulated, 16-18 hours
Method: Stimulation of T-cells leads to the appearance of several transcription factors, including one designated "NF-AT". These factors are involved in regulation of gene expression required for immunologic activation. Some of these transcription factors appear to have functions in a wide variety of cell types. By contrast, NF-AT is found primarily in T-cells and its role is restricted to early gene activation.
Inhibition of NF-AT activity is measured using FGL-5 cells. FGL-5 is a cloned line of stably transfected Jurkat T-cells that contain a construct in which three tandem copies of the NF-AT DNA binding site direct transcription of the lacZ gene, encoding β-galactosidase (Fiering et al., 1990, Genes & Development 4:1823). When these cells are stimulated with phorbol esters which activate protein kinase C and calcium ionophore to raise the intracellular calcium concentration, transcriptionally active NF-AT is produced. In T-cells, this normally leads to the expression of IL-2, T-cell growth factor. However, in FGL-5 cells NF-AT activation leads to the production of β-galactosidase which can be detected using an appropriate substrate.
NF-AT Inhibition Assay Directed β-Galactosidase Expression
This assay was performed essentially as described (Bierer et al., 1990, Proc. Natl. Acad. Sci. 87:9231). FGL-5 cells were maintained in medium consisting of RPMI-1640 with 10% FBS, 2 mM L-glutamine, 1% Penicillin- Streptomycin and 15 mM HEPES buffer. The assays were done with exponentially growing cells whose density was not greater than 0.5 million cells/ml. The cells were resuspended to 3 million cells/ml in medium and 0. 1 mi was added to wells of a 96-well plate.
The compounds of the present invention were dissolved in either ethanol or dimethylsulfoxide at 10 mM and 0.05 ml/well of various dilutions in medium were added to cells in duplicate wells. Treatment controls consisted of duplicate wells to which 0.05 ml/well of either medium, ethanol or dimethylsulfoxide was added. The ethanol and dimethyl sulfoxide were at the same concentration as was used for the compounds. Cells were incubated with compounds at room temperature for 10-15 minutes. Phorbol dibutyrate (Sigma) and Ionomycin (Calbiochem) were dissolved at 50 μg g/mi and 2 mM, respectively and stored at -70° C.
FGL-5 cells were stimulated by diluting these reagents with medium to 200 ng/ml and 8 μM, respectively and adding of 0.05 ml/well. For unstimulated cell controls, 0.05 mi/well of medium was added to duplicate wells. The plates were incubated overnight (16-18 hours) at 37° C. in a humidified atmosphere of 5% CO2 and air. β-galactosidase activity was measured as the fluorescence generated by the cleavage of 4-methyl umbelliferyl-β-D-galactoside (Sigma) at the β-galactoside bond. After overnight incubation, the cells were centrifuged at 500×g for 3 minutes in the 96-well plates and washed 3 times with PBS. The cells were then resuspended in 0. 18 mi/well of reaction medium containing 100 mM sodium phosphate buffer, pH 7.0, 10 mM potassium chloride, 1 mM magnesium sulfate, 0.1% Triton X-100 (Pierce, Rockford, Ill.), and 0.5 mM 4-methylumbelliferyl-β-D- galactoside.
The fluorescence at 460 nm using 355 nm excitation was measured at intervals over 1-2 hours (during which fluorescence increased linearly with time) with a LS50 Luminescence Spectrometer (Perkin Elmer).
The percent inhibition by each concentration of the compounds was calculated as: [formula]
The values of the concentration of compounds required for 50% inhibition (IC50) were determined by linear regression analysis of the percent inhibition at various compound concentrations.

Chain of FKBP (P62942 whole entry): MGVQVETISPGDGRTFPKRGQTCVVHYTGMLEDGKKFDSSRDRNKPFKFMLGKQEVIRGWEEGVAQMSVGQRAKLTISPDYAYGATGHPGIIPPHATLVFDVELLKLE

Structure (SMILES)	pIC50 (FKBP)	pIC50 (NF-AT)
CC(C)C[C@@H](CN1CCC[C@H]1C(=O)NCCCCc1ccccc1)NS(=O)(=O)c1cccs1 [Example 5, 1-[2-(S)-(Thiophene-2-sulfonylamino)-4-methylpentyl]-L-proline 4-Phenylbutylamide]	< 5.30	4.62
CC(C)C[C@@H](CN1CCC[C@H]1C(=O)NCCCCc1ccccc1)NS(=O)(=O)CC12CCC(CC1=O)C2(C)C (single isomer, unassigned) [Example 7]	< 5.30	< 4.82
CC(C)C[C@@H](CN1CCC[C@H]1C(=O)NCCCCc1ccccc1)NS(=O)(=O)c1ccc(-c2ccon2)s1 [Example 8, 1-[2-(S)-(5 - [Isoxazol-25-yl]-thiophene-2-sulfonylamino)-4-methylpentyl]-L-proline 4-Phenylbutylamide]	< 5.30	< 4.82
CC(C)C[C@@H](CN1CCC[C@H]1C(=O)NCCCCc1ccccc1)NS(=O)(=O)c1c(C(C)C)cc(C(C)C)cc1C(C)C [Example 10, 1-[2-(S)-(2',4',6'-Triisopropylbenzenesulfonylamino)-4-methylpentyl]-L-proline 4-Phenylbutylamide]	< 5.30	< 4.82

Next, values leading:

pIC50 (FKBP)	pIC50 (NF-AT)	Structure (SMILES)
< 5.30	≥ 4.96 and 4.96	CC(C)C[C@@H](CN1CCC[C@H]1C(=O)NCCCCc1ccccc1)NS(=O)(=O)c1cccc2cccnc12 [Example 3, 1-[2-(S)-(Quinoline-8-sulfonylamino)-4-methylpentyl]-L-proline 4-Phenylbutylamide]
< 5.30	4.57	Cc1ccc(S(=O)(=O)N[C@@H](CC(C)C)CN2CCC[C@H]2C(=O)NCCCCc2ccccc2)cc1 [Example 2, 1-[2-(S)-(Toluene-4-sulfonylamino)-4-methylpentyl]-L-proline 4-Phenylbutylamide]
< 5.30	< 4.82	CC[C@H](C)[C@H](NC(=O)[C@@H]1CCCCN1C[C@@H](NS(C)(=O)=O)[C@@H](C)CC)C(=O)NCc1ccccc1 [Example 11]
< 5.30	< 4.82	CC(C)C[C@@H](CN1CCC[C@H]1C(=O)NCCCCc1ccccc1)NS(=O)(=O)/C=C/c1ccccc1 [Example 6, 1-[2-(S)-(2-phenyl-ethenesulfonylamino)-4-methylpentyl]-L-proline 4-Phenylbutylamtde]
< 5.30	4.62	CC(=O)Nc1nc(C)c(S(=O)(=O)N[C@@H](CC(C)C)CN2CCC[C@H]2C(=O)NCCCCc2ccccc2)s1 [Example 4, 1-[2-(S)-(2-Acetylamino-4-methyl-S-thiazolesulfonylamino)-4-methylpentyl]-L -proline 4-Phenylbutylamide]
5.46	≥ 4.96 and 5.05	CC(C)C[C@@H](CN1CCC[C@H]1C(=O)NCCCCc1ccccc1)NS(C)(=O)=O [Example 1, 1-[2-(S)-Methanesulfonylamino-4-methylpentyl]-L-proline 4-Phenylbutylamide]
